Mutagenic call data for eleven compounds are collected here from PubChem BioAssay AID1259407 (Chemical Carcinogenesis Research Information System (CCRIS), 2018).

Active and inactive are the calls of the source. The rule behind the calls is not given here.

This series has as its system CCRIS mutagenicity, Ames/micronucleus/aberration tests. Nature of the series: CCRIS mutagenicity studies.
[1] abbreviates: Test System: AMES SALMONELLA TYPHIMURIUM, Strain/Indicator: TA98, Metabolic Activation: NONE, Method: STANDARD PLATE.
Setting [2] is: Test System: AMES SALMONELLA TYPHIMURIUM, Strain/Indicator: TA100, Metabolic Activation: NONE, Method: STANDARD PLATE.
[3] abbreviates: Test System: AMES SALMONELLA TYPHIMURIUM, Strain/Indicator: TA1535, Metabolic Activation: NONE, Method: STANDARD PLATE.
[4] abbreviates: Test System: AMES SALMONELLA TYPHIMURIUM, Strain/Indicator: TA1537, Metabolic Activation: NONE, Method: STANDARD PLATE.
The mark [5] stands for this setting: Test System: AMES SALMONELLA TYPHIMURIUM, Strain/Indicator: TA1538, Metabolic Activation: NONE, Method: STANDARD PLATE.
Setting [6] is: Test System: AMES SALMONELLA TYPHIMURIUM, Strain/Indicator: TA100, Metabolic Activation: NONE, Method: PREINCUBATION
The mark [7] stands for this setting: Test System: MOUSE LYMPHOMA, Strain/Indicator: L5178Y (TK+/TK-), Metabolic Activation: NONE, Method: SUSPENSION/PLATE.
The mark [8] stands for this setting: Test System: AMES SALMONELLA TYPHIMURIUM, Strain/Indicator: TA98, Metabolic Activation: NONE, Method: PREINCUBATION
The mark [9] stands for this setting: Test System: AMES SALMONELLA TYPHIMURIUM, Strain/Indicator: TA98, Metabolic Activation: RAT, LIVER, S-9, KANECHLOR 500, Method: PREINCUBATION
The mark [10] stands for this setting: Test System: AMES SALMONELLA TYPHIMURIUM, Strain/Indicator: TA100, Metabolic Activation: RAT, LIVER, S-9, KANECHLOR 500, Method: PREINCUBATION
[11] abbreviates: Test System: AMES SALMONELLA TYPHIMURIUM, Strain/Indicator: TA98, Metabolic Activation: RAT, LIVER, S-9, AROCLOR 1254, Method: STANDARD PLATE.
[12] abbreviates: Test System: AMES SALMONELLA TYPHIMURIUM, Strain/Indicator: TA100, Metabolic Activation: RAT, LIVER, S-9, AROCLOR 1254, Method: STANDARD PLATE.
Where [13] appears, read: Test System: AMES SALMONELLA TYPHIMURIUM, Strain/Indicator: TA1537, Metabolic Activation: RAT, LIVER, S-9, AROCLOR 1254, Method: STANDARD PLATE.

As to `c1ccc2sncc2c1`, the mutagenic call under setting [1] is “inactive; negative”; the mutagenic call (Test System: AMES SALMONELLA TYPHIMURIUM, Strain/Indicator: TA98, Metabolic Activation: S-9, Method: STANDARD PLATE) was “inactive; negative”; the mutagenic call under setting [2] is “inactive; negative”; the mutagenic call (Test System: AMES SALMONELLA TYPHIMURIUM, Strain/Indicator: TA100, Metabolic Activation: S-9, Method: STANDARD PLATE) was “inactive; negative”; the mutagenic call under setting [3] is “inactive; negative”; the mutagenic call (Test System: AMES SALMONELLA TYPHIMURIUM, Strain/Indicator: TA1535, Metabolic Activation: S-9, Method: STANDARD PLATE) is “inactive; negative”. Besides, the mutagenic call is, setting by setting: under setting [4], “inactive; negative”; (Test System: AMES SALMONELLA TYPHIMURIUM, Strain/Indicator: TA1537, Metabolic Activation: S-9, Method: STANDARD PLATE) “inactive; negative”.
With `CCCCC(CC)COC(=O)COc1ccc(Cl)cc1Cl` (configuration not stated), the mutagenic call was “inactive; negative” under setting [1]; “inactive; negative” (Test System: AMES SALMONELLA TYPHIMURIUM, Strain/Indicator: TA98, Metabolic Activation: RAT LIVER S-9, AROCLOR 1254, 10%, Method: STANDARD PLATE); “inactive; negative” under setting [2]; “inactive; negative” (Test System: AMES SALMONELLA TYPHIMURIUM, Strain/Indicator: TA100, Metabolic Activation: RAT LIVER S-9, AROCLOR 1254, 10%, Method: STANDARD PLATE); “inactive; negative” under setting [3]; “inactive; negative” (Test System: AMES SALMONELLA TYPHIMURIUM, Strain/Indicator: TA1535, Metabolic Activation: RAT LIVER S-9, AROCLOR 1254, 10%, Method: STANDARD PLATE). Further, the mutagenic call reads like this: under setting [4], “inactive; negative”; (Test System: AMES SALMONELLA TYPHIMURIUM, Strain/Indicator: TA1537, Metabolic Activation: RAT LIVER S-9, AROCLOR 1254, 10%, Method: STANDARD PLATE) “inactive; negative”; under setting [5], “inactive; negative”; (Test System: AMES SALMONELLA TYPHIMURIUM, Strain/Indicator: TA1538, Metabolic Activation: RAT LIVER S-9, AROCLOR 1254, 10%, Method: STANDARD PLATE) “inactive; negative”; (Test System: UDS RAT HEPATOCYTES, Strain/Indicator: THYMIDINE INCORPORATION, Metabolic Activation: NONE, Method: AUTORADIOGRAPHY) “inactive; negative”.
For the compound `O=C(O)COc1ccccc1`, the mutagenic call is, setting by setting: (Test System: AMES SALMONELLA TYPHIMURIUM, Strain/Indicator: TA97, Metabolic Activation: NONE, Method: PREINCUBATION) “inactive; negative”; (Test System: AMES SALMONELLA TYPHIMURIUM, Strain/Indicator: TA97, Metabolic Activation: RAT, LIVER, S-9, AROCLOR 1254, Method: PREINCUBATION) “inactive; negative”; under setting [6], “inactive; negative”; (Test System: AMES SALMONELLA TYPHIMURIUM, Strain/Indicator: TA100, Metabolic Activation: RAT, LIVER, S-9, AROCLOR 1254, Method: PREINCUBATION) “inactive; negative”; (Test System: AMES SALMONELLA TYPHIMURIUM, Strain/Indicator: TA102, Metabolic Activation: NONE, Method: PREINCUBATION) “inactive; negative”; (Test System: AMES SALMONELLA TYPHIMURIUM, Strain/Indicator: TA102, Metabolic Activation: RAT, LIVER, S-9, AROCLOR 1254, Method: PREINCUBATION) “inactive; negative”.
As for `CC(C)(C)CC(C)(C)c1ccc(OCCO)cc1`, the mutagenic call under setting [7] was “inactive; negative”.
Turning to `C(CC1CO1)C1CO1` (configuration not stated), the mutagenic call is, setting by setting: under setting [2], “active; positive”; under setting [3], “active; positive”.
Turning to `OC[C@@H](O)CCl`, the mutagenic call under setting [8] is “inactive; negative”; the mutagenic call under setting [9] was “inactive; negative”; the mutagenic call under setting [6] was “active; positive”; the mutagenic call under setting [10] was “inactive; negative”; the mutagenic call (Test System: AMES SALMONELLA TYPHIMURIUM, Strain/Indicator: TA100, Metabolic Activation: RAT, LIVER, S-9, PCB, Method: PREINCUBATION) was “active; positive”.
Regarding `CC(=O)OCc1c2ccccc2cc2c1ccc1ccccc12`, the mutagenic call by setting is: under setting [1], “active; positive”; under setting [2], “active; positive”.
`CC(=O)Nc1ccc2ccccc2n1`: the mutagenic call is, setting by setting: under setting [8], “inactive; negative”; under setting [9], “inactive; negative”; under setting [6], “inactive; negative”; under setting [10], “inactive; negative”.
As for `Cc1ccc2c(c1[N+](=O)[O-])C(=O)c1ccccc1C2=O`, the mutagenic call runs as follows: under setting [1], “active; positive”; under setting [11], “active; positive”; under setting [12], “active; positive”; under setting [3], “inactive; negative”; under setting [13], “active; positive”; under setting [5], “active; positive”.
Consider `O=[N+]([O-])c1ccc2sc3ccccc3c2c1`, for which the mutagenic call (Test System: AMES SALMONELLA TYPHIMURIUM, Strain/Indicator: TA98 (1,8-DNP6), Metabolic Activation: NONE, Method: PREINCUBATION) is “active; positive”; the mutagenic call (Test System: AMES SALMONELLA TYPHIMURIUM, Strain/Indicator: TA98(NR), Metabolic Activation: NONE, Method: PREINCUBATION) is “active; positive”; the mutagenic call (Test System: AMES SALMONELLA TYPHIMURIUM, Strain/Indicator: TA98(NR), Metabolic Activation: RAT LIVER S-9, 3-METHYLCHOLANTHRENE (10%), Method: PREINCUBATION) is “active; positive”; the mutagenic call under setting [8] was “active; positive”.
Turning to `COc1ccc(-c2coc3cc(O)cc(O)c3c2=O)cc1`, the mutagenic call (Test System: AMES SALMONELLA TYPHIMURIUM, Strain/Indicator: TA98, Metabolic Activation: HAMSTER, LIVER, S-9, AROCLOR 1254, Method: STANDARD PLATE) was “inactive; negative”; the mutagenic call under setting [1] was “inactive; negative”; the mutagenic call under setting [11] is “inactive; negative”; the mutagenic call (Test System: AMES SALMONELLA TYPHIMURIUM, Strain/Indicator: TA100, Metabolic Activation: HAMSTER, LIVER, S-9, AROCLOR 1254, Method: STANDARD PLATE) was “inactive; negative”; the mutagenic call under setting [2] was “inactive; negative”; the mutagenic call under setting [12] was “inactive; negative”. Moreover, the mutagenic call (Test System: AMES SALMONELLA TYPHIMURIUM, Strain/Indicator: TA1535, Metabolic Activation: HAMSTER, LIVER, S-9, AROCLOR 1254, Method: STANDARD PLATE) was “inactive; negative”; the mutagenic call under setting [3] is “inactive; negative”; the mutagenic call (Test System: AMES SALMONELLA TYPHIMURIUM, Strain/Indicator: TA1535, Metabolic Activation: RAT, LIVER, S-9, AROCLOR 1254, Method: STANDARD PLATE) is “inactive; negative”; the mutagenic call (Test System: AMES SALMONELLA TYPHIMURIUM, Strain/Indicator: TA1537, Metabolic Activation: HAMSTER, LIVER, S-9, AROCLOR 1254, Method: STANDARD PLATE) is “inactive; negative”; the mutagenic call under setting [4] is “inactive; negative”; the mutagenic call under setting [13] was “inactive; negative”. Also, the mutagenic call (Test System: AMES SALMONELLA TYPHIMURIUM, Strain/Indicator: TA1538, Metabolic Activation: HAMSTER, LIVER, S-9, AROCLOR 1254, Method: STANDARD PLATE) was “inactive; negative”; the mutagenic call under setting [5] is “inactive; negative”; the mutagenic call (Test System: AMES SALMONELLA TYPHIMURIUM, Strain/Indicator: TA1538, Metabolic Activation: RAT, LIVER, S-9, AROCLOR 1254, Method: STANDARD PLATE) was “inactive; negative”; the mutagenic call under setting [7] was “active; positive. reevaluation of results: inconclusive”; the mutagenic call (Test System: MOUSE LYMPHOMA, Strain/Indicator: L5178Y (TK+/TK-), Metabolic Activation: RAT, LIVER, S-9, AROCLOR 1254, Method: SUSPENSION/PLATE) is “active; positive. reevaluation of results: positive”; the mutagenic call (Test System: SYRIAN HAMSTER EMBRYO CELLS, Strain/Indicator: HPRT/6-THIOGUANINE, Metabolic Activation: NONE, Method: PLATE) is “inactive; negative”.
